# Measurements from patent US11389415B2, “Methods of regulating cannabinoid receptor activity-related disorders and diseases” (The United States of America as represented by the …, priority 2012, dated 2022).
# Test system: rat C6 glioma xenografts
# Test: Gene expression profiling (microarray, GO term and PAGE gene set analysis) in rat C6 glioma xenografts
# Assay type: in vivo, mouse
# Conditions: for Z score, GO0000775 Chromosome pericentric region / Z score, GO0004527 Exonuclease activity / Z score, GO0005634 Nucleus / Z score, GO0006260 DNA replication / Z score, GO0006270 DNA replication initiation / Z score, GO0007049 Cell cycle / Z score, GO0007051 Spindle organization and biogenesis / Z score, GO0007067 Mitosis / Z score, GO0048015 Phosphoinositide mediated signaling / Z score, GO0051301 Cell division: MNF_Crtl
# Description: Analysis of gene expression in rat C6 glioma xenografts. Total RNA was isolated from rat C6 glioma xenografts harvested from vehicle and MNF-treated mice (n=3 per group, cohort 1). This analysis was repeated in a second cohort of animals (n=3 per group, cohort 2). Total cellular RNA was extracted using an RNeasy plus mini kit (QIAGEN, Valencia, Calif.), and its quality was assessed using an Agilent BioAnalyzer using RNA 6000 Nano Chips (Agilent Technologies, Santa Clara, Calif.). Transcriptional profiling was determined using Illumina Sentrix BeadChips (Illumina, San Diego, Calif.). Total RNA was used to generate biotin-labeled cRNA with the Illumina TotalPrep RNA Amplification Kit. In short, 0.5 ug of total RNA was first converted into single-stranded cDNA with reverse transcriptase using an oligo-dT primer containing the T7 RNA polymerase promoter site and then copied to produce double-stranded cDNA molecules. The double-stranded cDNA was cleaned and concentrated with the supplied columns and used in an overnight in-vitro transcription reaction where single-stranded RNA (cRNA) was generated incorporating biotin-16-UTP. A total of 0.75 μg of biotin-labeled cRNA was hybridized at 58° C. for 16 hours to Illumina's Sentrix Rat Ref-12 Expression BeadChips. Each BeadChip has ˜22,000 well-annotated RefSeq transcripts with approximately 30-fold redundancy. The arrays were washed, blocked and the labeled cRNA was detected by staining with streptavidin-Cy3. Hybridized arrays were scanned using an Illumina BeadStation 500× Genetic Analysis Systems scanner and the image data extracted using Illumina's GenomeStudio software, version 1.6.1. For statistical analysis, the expression data were filtered to include only probes with a consistent signal on each chip and an Illumina detecton p value <0.02.
# Correlation analysis, sample clustering analysis and principal component analysis was performed to identify/exclude any possible outliers. The resulting dataset was next analyzed with DIANE 6.0, a spreadsheet-based microarray analysis program using value statistics for Z-Score reliability below 0.05; and mean background-corrected signal intensity greater than zero.
# Gene set enrichment analysis use gene expression values or gene expression change values for all of the genes in the microarray. Parametric analysis of gene set enrichment (PAGE) was used using the WEB-PAGE GSA tool for gene set analysis. Gene Sets include the MSIG database, Gene Ontology Database, GAD human disease and mouse phenotype gene sets were used to explore functional level changes. Gene-gene interaction was also analyzed using the INGENUITY® Pathway Analysis (IPA) system (INGENUITY® Systems).
# [1] = Table 9, gene sets influenced by MNF treatment
smiles,measurement,setting,value
"COc1ccc(C[C@@H](C)NC[C@H](O)c2cc(O)cc(O)c2)c2ccccc12 [(R,R′)-MNF, (R,R′)-4′-methoxy-1-naphthylfenoterol]","Z score, SHEPARD_GENES_COMMON_BW_CB_MO","MNF_Control, cohort 2",−4.3867
same,"Z score, STEMCELL_NEURAL_UP","MNF_Control, cohort 2",−5.0064
same,"Z score, TARTE_MATURE_PC","MNF_Control, cohort 2",5.3293
same,"Z score, TARTE_PLASMA_BLASTIC","MNF_Control, cohort 2",−6.7905
same,"Z score, VERNELL_PRB_CLSTR1","MNF_Control, cohort 2",−6.5636
same,"Z score, YU_CMYC_UP","MNF_Control, cohort 2",−7.3723
same,"Z score, ZHAN_MM_CD138_PR_VS_REST","MNF_Control, cohort 2",−9.0080
same,"Z score, ADIP_DIFF_CLUSTERS","MNF_Control, combined cohorts",−7.9684
same,"Z score, ATRBRCAPATHWAY","MNF_Control, combined cohorts",−3.4407
same,"Z score, BRCA_PROGNOSIS_NEG","MNF_Control, combined cohorts",−6.5976
same,"Z score, BRENTANI_REPAIR","MNF_Control, combined cohorts",−4.2370
same,"Z score, CANCER_UNDIFFERENTIATED_META_UP","MNF_Control, combined cohorts",−7.7981
same,"Z score, CELL_CYCLE","MNF_Control, combined cohorts",−8.6730
same,"Z score, CELL_CYCLE_KEGG","MNF_Control, combined cohorts",−7.8764
same,"Z score, CMV_IE86_UP","MNF_Control, combined cohorts",−8.5032
same,"Z score, CROONQUEST_IL6_STARVE_UP","MNF_Control, combined cohorts",−10.7172
same,"Z score, CROONQUIST_IL6_RAS_DN","MNF_Control, combined cohorts",−9.7453
same,"Z score, DAC_FIBRO_DN","MNF_Control, combined cohorts",−6.4794
same,"Z score, DNA_REPLICATION_REACTOME","MNF_Control, combined cohorts",−7.3185
same,"Z score, DOX_RESIST_GASTRIC_UP","MNF_Control, combined cohorts",−10.1840
same,"Z score, E2F1_DNA_UP","MNF_Control, combined cohorts",−5.4288
same,"Z score, GAY_YY1_DN","MNF_Control, combined cohorts",−7.4972
same,"Z score, GOLDRATH_HP","MNF_Control, combined cohorts",−3.4750
same,"Z score, HDACI_COLON_BUT12 HRS_UP","MNF_Control, combined cohorts",5.8481
same,"Z score, HDACI_COLON_BUT16HRS_UP","MNF_Control, combined cohorts",4.8024
same,"Z score, HDACI_COLON_BUT24HRS_UP","MNF_Control, combined cohorts",4.4492
same,"Z score, HDACI_COLON_TSABUT_UP","MNF_Control, combined cohorts",5.2313
same,"Z score, HIPPOCAMPUS_DEVELOPMENT_POSTNATAL","MNF_Control, combined cohorts",11.4209
same,"Z score, HOFFMANN_BIVSBII_BI_TABLE2","MNF_Control, combined cohorts",−8.5773
same,"Z score, HYPOPHYSECTOMY_RAT_DN","MNF_Control, combined cohorts",5.3951
same,"Z score, IDX_TSA_UP_CLUSTER3","MNF_Control, combined cohorts",−11.3388
same,"Z score, IRITANI_ADPROX_LYMPH","MNF_Control, combined cohorts",−5.7142
same,"Z score, KAMMINGA_EZH2_TARGETS","MNF_Control, combined cohorts",−8.8163
same,"Z score, KENNY_WNT_UP","MNF_Control, combined cohorts",−6.9481
same,"Z score, LAMB_CYCLIN_D3_GLOCUS","MNF_Control, combined cohorts",−5.0503
same,"Z score, LEE_TCELLS2_UP","MNF_Control, combined cohorts",−6.9464
same,"Z score, LEE_TCELLS3_UP","MNF_Control, combined cohorts",−10.3427
same,"Z score, LI_FETAL_VS_WT_KIDNEY_DN","MNF_Control, combined cohorts",−10.4609
same,"Z score, MANALO_HYPOXIA_DN","MNF_Control, combined cohorts",−6.7155
same,"Z score, MIDDLEAGE_DN","MNF_Control, combined cohorts",−8.2457
same,"Z score, MOREAUX_TACI_HI_IN_PPC_UP","MNF_Control, combined cohorts",−4.9180
same,"Z score, MOREAUX_TACI_HI_VS_LOW_DN","MNF_Control, combined cohorts",−5.1872
same,"Z score, OLDAGE_DN","MNF_Control, combined cohorts",−8.1220
same,"Z score, P21_P53_ANY_DN","MNF_Control, combined cohorts",−8.8530
same,"Z score, PEART_HISTONE_DN","MNF_Control, combined cohorts",−5.7817
same,"Z score, PODI_KO_UP","MNF_Control, combined cohorts",−5.1416
same,"Z score, PRMT5_KD_UP","MNF_Control, combined cohorts",−8.9362
same,"Z score, REN_E2F1_TARGETS","MNF_Control, combined cohorts",−4.4393
same,"Z score, SASAKI_ATL_UP","MNF_Control, combined cohorts",−7.2897
same,"Z score, SASAKI_TCELL_LYMPHOMA_VS_CD4_UP","MNF_Control, combined cohorts",−7.2897
same,"Z score, SERUM_FIBROBLAST_CELLCYCLE","MNF_Control, combined cohorts",−12.2668
same,"Z score, SHEPARD_BMYB_MORPHOLINO_DN","MNF_Control, combined cohorts",−6.0639
same,"Z score, SHEPARD_CRASH_AND_BURN_MUT_VS_WT_DN","MNF_Control, combined cohorts",−5.5788
same,"Z score, SHEPARD_GENES_COMMON_BW_CB_MO","MNF_Control, combined cohorts",−5.7440
same,"Z score, STEMCELL_NEURAL_UP","MNF_Control, combined cohorts",−7.2833
same,"Z score, TARTE_MATURE_PC","MNF_Control, combined cohorts",6.8026
same,"Z score, TARTE_PLASMA_BLASTIC","MNF_Control, combined cohorts",−8.3308
same,"Z score, VERNELL_PRB_CLSTR1","MNF_Control, combined cohorts",−7.4144
same,"Z score, YU_CMYC_UP","MNF_Control, combined cohorts",−8.4501
same,"Z score, ZHAN_MM_CD138_PR_VS_REST","MNF_Control, combined cohorts",−10.7002
same,"Z score, GO0000775 Chromosome pericentric region",Combined,−6.3081
same,"Z score, GO0004527 Exonuclease activity",Combined,−5.8765
same,"Z score, GO0005634 Nucleus",Combined,−9.4291
same,"Z score, GO0006260 DNA replication",Combined,−7.3157
same,"Z score, GO0006270 DNA replication initiation",Combined,−5.0248
same,"Z score, GO0007049 Cell cycle",Combined,−9.3510
same,"Z score, GO0007051 Spindle organization and biogenesis",Combined,−6.7039
same,"Z score, GO0007067 Mitosis",Combined,−10.1574
same,"Z score, GO0048015 Phosphoinositide mediated signaling",Combined,−5.2545
same,"Z score, GO0051301 Cell division",Combined,−10.1585
same,"Z score, GO0000775 Chromosome pericentric region",Set 1,−6.7644
same,"Z score, GO0004527 Exonuclease activity",Set 1,−2.5829
same,"Z score, GO0005634 Nucleus",Set 1,−2.1680
same,"Z score, GO0006260 DNA replication",Set 1,−4.7695
same,"Z score, GO0006270 DNA replication initiation",Set 1,−4.0283
same,"Z score, GO0007049 Cell cycle",Set 1,−5.1361
same,"Z score, GO0007051 Spindle organization and biogenesis",Set 1,−4.6166
same,"Z score, GO0007067 Mitosis",Set 1,−7.5266
same,"Z score, GO0048015 Phosphoinositide mediated signaling",Set 1,−4.2781
same,"Z score, GO0051301 Cell division",Set 1,−6.9059
same,"Z score, GO0000775 Chromosome pericentric region",Set 2,−3.5296
same,"Z score, GO0004527 Exonuclease activity",Set 2,−5.4622
same,"Z score, GO0005634 Nucleus",Set 2,−9.9454
same,"Z score, GO0006260 DNA replication",Set 2,−6.0446
same,"Z score, GO0006270 DNA replication initiation",Set 2,−3.7775
same,"Z score, GO0007049 Cell cycle",Set 2,−8.0162
same,"Z score, GO0007051 Spindle organization and biogenesis",Set 2,−5.2288
same,"Z score, GO0007067 Mitosis",Set 2,−7.6563
same,"Z score, GO0048015 Phosphoinositide mediated signaling",Set 2,−3.5441
same,"Z score, GO0051301 Cell division",Set 2,−8.0673
same,"Z score, CELL_CYCLE",[1],−7.4222
same,"Z score, CROONQUIST_IL6_STARVE_UP",[1],−9.0059
same,"Z score, HDACI_COLON_BUT12 HRS_UP",[1],3.6676
same,"Z score, HIPPOCAMPUS_DEVELOPMENT_POSTNATAL",[1],10.3511
same,"Z score, HYPOPHYSECTOMY_RAT_DN",[1],3.9294
same,"Z score, IDX_TSA_UP_CLUSTER3",[1],−10.1593
same,"Z score, P21_P53_ANY_DN",[1],−7.4300
same,"Z score, SERUM_FIBROBLAST_CELLCYCLE",[1],−10.6997
same,"Z score, TARTE_MATURE_PC",[1],5.3293
